The conditions of data set [1]: Canine, cited from earlier work.
Data set [2] can be described thus: Plasma pharmacokinetics of esomeprazole and esomeprazole sulfone in goats after IV and SC administration (HPLC, non-compartmental analysis). The note with it: for C0: C0, goats; for MRT inf: MRTinf; for k el: λz; for Vd/F: Vz/F.
The conditions of data set [3]: humans, cited from earlier work.
The subject of another data set is gastric pH. Particulars: horses, cited from earlier work.
The conditions of data set [4]: in vivo.
The subject of data set [5] is pH of the third compartment. Also on record: method as in PMID 20384953. The note with it: alpacas, administered IV or SC; cited from earlier work.
Details of data set [6]: method as in PMID 34631865. Particulars: goats, intravenously or subcutaneously administered, all animals; cited from earlier work.
[7] abbreviates: both, pygmy and pygmy-cross, plasma, iv, 1 mg/kg.
Setting [8] is: both, pygmy and pygmy-cross, plasma, iv, 1 mg/kg, goats, 1 mg/kg IV single dose, geomean, n = 5.
Setting [9] is: both, pygmy and pygmy-cross, plasma, iv, 1 mg/kg, goats, 1 mg/kg IV single dose, median, n = 5.
[10] abbreviates: both, pygmy and pygmy-cross, plasma, sc, 2 mg/kg.
Setting [11] is: both, pygmy and pygmy-cross, plasma, sc, 2 mg/kg, goats, 2 mg/kg SC (SQ) single dose, geomean, n = 5.
Setting [12] is: both, pygmy and pygmy-cross, plasma, sc, 2 mg/kg, goats, 2 mg/kg SC (SQ) single dose, median, n = 5.
Setting [13] is: goats, 1 mg/kg IV single dose, plasma, geomean, n = 5.
[14] abbreviates: goats, 1 mg/kg IV single dose, plasma, median, n = 5.
Where [15] appears, read: goats, 2 mg/kg SC (SQ) single dose, plasma, geomean, n = 5.
Where [16] appears, read: goats, 2 mg/kg SC (SQ) single dose, plasma, median, n = 5.

Where two headings read alike, the source gives them in different places.

As for `COc1ccc2nc([S@@+]([O-])Cc3ncc(C)c(OC)c3C)[nH]c2c1` [Esomeprazole, esomeprazole], the AUCinf in data set [1] (1 mg/kg IV) is 3820 ng·h/mL; in data set [1] (1 mg/kg SQ), 4070 ng·h/mL; in data set [2] (setting [13]) it was 442 ng·h/mL; in data set [2] (setting [14]), 397 ng·h/mL; in data set [2] (setting [15]), 1030 ng·h/mL; in data set [2] (setting [16]), 979 ng·h/mL. For the same molecule, the AUClast is 3820 ng·h/mL in data set [1] (1 mg/kg IV); 4070 ng·h/mL in data set [1] (1 mg/kg SQ); 439 ng·h/mL in data set [2] (setting [13]); 394 ng·h/mL in data set [2] (setting [14]); 1020 ng·h/mL in data set [2] (setting [15]); 959 ng·h/mL in data set [2] (setting [16]). In addition, the Cl in data set [1] (1 mg/kg IV) is 5 mL/min/kg. Also, the entries for the “T1/2 (λz)” value in data set [1] (1 mg/kg IV) and in data set [1] (1 mg/kg SQ) were 43.8 min and 54 min, respectively. Moreover, in data set [1] (1 mg/kg IV), the Vss (usually the apparent volume that relates the amount in the body to the concentration in plasma or blood) is 0.27 L/kg. Further, the C0/Cmax in data set [1] (1 mg/kg SQ) was 2620 ng/mL. Further, the “F (bioavailability)” value in data set [1] (1 mg/kg SQ) is recorded as 106%; in data set [2] (Goat, 2 mg/kg SC vs 1 mg/kg IV, AUCSC/AUCIV x DoseIV/DoseSC) it was 116%. Also, the figures for the area under the curve AUC(0-inf) in data set [2] (setting [7]) and in data set [2] (setting [10]) were 440 ng·h/mL and 1030 ng·h/mL, respectively. Further, the AUC(0-t) – broadly, exposure summed from dosing to a finite time, without extrapolation to infinity – came to 440 ng·h/mL in data set [2] (setting [7]) and 1020 ng·h/mL in data set [2] (setting [10]). Further, the C0 in data set [2] (both, pygmy and pygmy-cross, plasma, iv, 1 mg/kg, 1 mg/kg IV single dose, geomean, n = 5) turned out to be 2320 ng/mL; in data set [2] (both, pygmy and pygmy-cross, plasma, iv, 1 mg/kg, 1 mg/kg IV single dose, median, n = 5) it was 2880 ng/mL. Further, the maximum concentration (Cmax) – broadly, the peak of the concentration-time curve – in data set [2] (both, pygmy and pygmy-cross, plasma, iv, 1 mg/kg, C0/Cmax, Goat, 1 mg/kg IV (Table 3 comparison)) was 2320 ng/mL; in data set [2] (both, pygmy and pygmy-cross, plasma, sc, 2 mg/kg, C0/Cmax, Goat, 2 mg/kg SQ (Table 3 comparison)), 1040 ng/mL; in data set [2] (both, pygmy and pygmy-cross, plasma, sc, 2 mg/kg, Cmax, goats, 2 mg/kg SC (SQ) single dose, geomean, n = 5) it was 1040 ng/mL; in data set [2] (both, pygmy and pygmy-cross, plasma, sc, 2 mg/kg, Cmax, goats, 2 mg/kg SC (SQ) single dose, median, n = 5), 1060 ng/mL. The clearance in data set [2] (both, pygmy and pygmy-cross, plasma, iv, 1 mg/kg, Cl (plasma clearance), goats, 1 mg/kg IV single dose, geomean, n = 5) was 24.9 mL/min/kg; in data set [2] (both, pygmy and pygmy-cross, plasma, iv, 1 mg/kg, Cl (plasma clearance), goats, 1 mg/kg IV single dose, median, n = 5) it was 21.9 mL/min/kg; in data set [2] (both, pygmy and pygmy-cross, plasma, iv, 1 mg/kg, Cl, Goat, 1 mg/kg IV (Table 3 comparison)), 25 mL/min/kg; in data set [2] (both, pygmy and pygmy-cross, plasma, iv, 1 mg/kg, clearance, goats, 1 mg/kg IV, not normalised to body weight), 1050 mL/min. Also, the MRT inf (in general, a mean duration of stay, worked out from the concentration-time curve) in data set [2] (setting [8]) was 9.19 min; in data set [2] (setting [9]) it was 8.41 min; in data set [2] (setting [11]), 51.7 min; in data set [2] (setting [12]), 52.1 min. The Vd was determined as 0.23 L/kg in data set [2] (both, pygmy and pygmy-cross, plasma, iv, 1 mg/kg, Vss, Goat, 1 mg/kg IV (Table 3 comparison)); 0.23 L/kg in data set [2] (both, pygmy and pygmy-cross, plasma, iv, 1 mg/kg, Vz (volume of distribution), goats, 1 mg/kg IV single dose, geomean, n = 5); 0.19 L/kg in data set [2] (both, pygmy and pygmy-cross, plasma, iv, 1 mg/kg, Vz (volume of distribution), goats, 1 mg/kg IV single dose, median, n = 5). In addition, the k el in data set [2] (setting [8]) is 0.00183 s⁻¹; in data set [2] (setting [9]) it was 0.00183 s⁻¹; in data set [2] (setting [11]), 0.0004 s⁻¹; in data set [2] (setting [12]), 0.000433 s⁻¹. Moreover, the bioavailability (usually dose-corrected exposure relative to a reference, in per cent) in data set [2] (both, pygmy and pygmy-cross, plasma, sc, 2 mg/kg, F (bioavailability), Goat, 2 mg/kg SC vs 1 mg/kg IV, AUCSC/AUCIV x DoseIV/DoseSC) is greater than 100%. In addition, the half-life (in general, the time in which the quantity being followed falls by half) is 29 min in data set [2] (both, pygmy and pygmy-cross, plasma, sc, 2 mg/kg, T1/2 (λz) elimination half-life, goats, 2 mg/kg SC (SQ) single dose, geomean, n = 5); 26.8 min in data set [2] (both, pygmy and pygmy-cross, plasma, sc, 2 mg/kg, T1/2 (λz) elimination half-life, goats, 2 mg/kg SC (SQ) single dose, median, n = 5); 29.4 min in data set [2] (both, pygmy and pygmy-cross, plasma, sc, 2 mg/kg, T1/2 (λz), Goat, 2 mg/kg SQ). The time of peak concentration (Tmax) (usually the time from dosing to the highest level) in data set [2] (both, pygmy and pygmy-cross, plasma, sc, 2 mg/kg, Tmax, goats, 2 mg/kg SC (SQ) single dose, geomean, n = 5) was 22 min; in data set [2] (both, pygmy and pygmy-cross, plasma, sc, 2 mg/kg, Tmax, goats, 2 mg/kg SC (SQ) single dose, median, n = 5), 20 min; in data set [2] (goats, 2 mg/kg SC (SQ) single dose, plasma, geomean, n = 5, 2 mg/kg), 21.69 min. Besides, the values for the Vd/F in data set [2] (setting [11]) and in data set [2] (setting [12]) were 0.9 L/kg and 0.78 L/kg, respectively. The AUMCinf in data set [2] (setting [13]) was 244 min²·µg/mL; in data set [2] (setting [14]), 222 min²·µg/mL; in data set [2] (setting [15]), 3200 min²·µg/mL; in data set [2] (setting [16]), 3780 min²·µg/mL. In data set [2] (goats, IV (1 mg/kg) and SC (2 mg/kg), any animal), the “plasma concentrations detected over time” value was “not detected after 4 h”. In addition, the “tolerability of maintenance therapy” value in data set [3] (daily for up to 6 months) is on record as “generally well-tolerated”. Also, the “gastric pH raised to” value in the data set with gastric pH (administered intravenously) is recorded as no less than 4.
On to `COc1ccc2[nH]c(S(=O)(=O)Cc3ncc(C)c(OC)c3C)nc2c1` [Esomeprazole Sulfone, esomeprazole sulfone], for which the “time detectable in plasma” value in data set [4] is less than 4 h. Besides, the “detection of sulfone metabolite in plasma” value in data set [4] (sc) is on record as “no detectable sulfone metabolite”. Besides, the “activity of the metabolite within the body” value in data set [3] is given as “not active”.
For the molecule `COc1ccc2[n-]c([S+]([O-])Cc3ncc(C)c(OC)c3C)nc2c1.COc1ccc2[n-]c([S+]([O-])Cc3ncc(C)c(OC)c3C)nc2c1.[Mg+2]` (stereo not shown) [esomeprazole magnesium], in the data set with gastric pH (orally 60 or 80 mg, for up to 6 h post administration), the “gastric pH maintained” value is recorded as no less than 5. The adverse reactions result with gastric pH (orally 60 or 80 mg) was “No adverse reactions were found”.
`COc1ccnc(C[S+]([O-])c2nc3ccc(OC(F)F)cc3[nH]2)c1OC` (stereo not shown) [pantoprazole]: in data set [5], the “effect on pH of the third compartment” value is reported as “significantly increased the pH of the third compartment”. In addition, the “plasma concentration detected over time” value in data set [6] is “undetectable after 4 h”.
